Laboratory results reported in US20120172369A1 (priority 2009, published 2012).
pIC50: −log10 of the molar value.

Target: T1, human DGAT1 enzyme (Homo sapiens, UniProt O75907)
T1 construct: made in house; host or cells: Sf9 insect cells (microsomal membranes)
T1 sequence (O75907 1-488): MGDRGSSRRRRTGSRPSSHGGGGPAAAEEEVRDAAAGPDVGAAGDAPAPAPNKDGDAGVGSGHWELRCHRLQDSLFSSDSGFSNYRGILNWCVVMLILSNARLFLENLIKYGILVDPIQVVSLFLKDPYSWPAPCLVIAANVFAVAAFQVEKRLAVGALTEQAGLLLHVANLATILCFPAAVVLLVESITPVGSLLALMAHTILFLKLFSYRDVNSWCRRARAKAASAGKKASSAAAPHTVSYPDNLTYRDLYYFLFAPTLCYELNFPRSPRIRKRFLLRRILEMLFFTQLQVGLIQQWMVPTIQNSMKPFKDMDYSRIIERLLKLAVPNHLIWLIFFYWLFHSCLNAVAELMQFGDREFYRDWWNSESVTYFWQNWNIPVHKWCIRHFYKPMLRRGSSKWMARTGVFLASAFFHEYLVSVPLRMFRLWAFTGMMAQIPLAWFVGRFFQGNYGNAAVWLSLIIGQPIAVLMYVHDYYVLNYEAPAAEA
Assay: in vitro DGAT1 inhibition assay (microsomes, [14C]-palmitoyl-CoA, SPA beads)
Type: biochemical
Settings: human DGAT1 expressed in Sf9 insect cells, microsomes; 2 hours at room temperature; read-out: IC50
Protocol: The in vitro assay to identify DGAT1 inhibitors uses human DGAT1 enzyme expressed in Sf9 insect cells prepared as microsomes. The reaction was initiated by the addition of the combined substrates 1,2-dioleoyl-sn-glycerol and [^14C]-palmitoyl-Co A and incubated with test compounds and microsomal membranes for 2 hours at room temperature. The assay was stopped by adding 0.5 mg wheat germ agglutinin beads in assay buffer with 1% Brij-35 and 1% 3-cholamidopropyldimethyl-ammonio-1-propane sulfonate. Plates were sealed with TopSeal and incubated for 18 hours to allow the radioactive triglyceride product to come into proximity with the bead. Plates were read on a TopCount instrument.
Percent inhibition was calculated as the percent of (test compound inhibition minus non-specific binding) relative to (total binding minus non-specific binding). IC50 values were determined by curve fitting the data to a Sigmoidal dose-response in GraphPad Prism utilizing the following equation:
Y=A+(B−A)/(1+10̂((Log IC50−X))),
where A and B are the bottom and top of the curve (highest and lowest inhibition), respectively, and X is the logarithm of concentration.

SMILES	pIC50
Cc1c(C(=O)Nc2ccc(N3CCC(OCc4cccc(C(=O)O)c4)CC3)nc2)sc2ccc(-c3ccccc3)cc12 [Example 51, 3-((1-(5-(3-methyl-5-phenylbenzo[b]thiophene-2-carboxamido)pyridin-2-yl)piperidin-4-yloxy)methyl)benzoic acid]	7.55
Cc1c(C(=O)Nc2ccc(N3CCN(C(=O)Nc4ccccc4C(=O)O)CC3)nc2)sc2ccc(-c3ccccc3)cc12 [Example 53, 2-(4-(5-(3-methyl-5-phenylbenzo[b]thiophene-2-carboxamido)pyridin-2-yl)piperazine-1-carboxamido)benzoic acid]	7.57
Cc1c(C(=O)Nc2ccc(-c3ccc(OCC(C)(C)C(=O)O)nc3)cc2)oc2ccc(-c3ccccc3)cc12 [Example 58, 2,2-dim ethyl-3-(5-(4-(3-methyl-5-phenylbenzofuran-2-carboxamido)phenyl)pyridin-2-yloxy)propanoic acid]	7.89
Cc1c(C(=O)Nc2ccc(N3CCN(C(=O)Cc4c(F)cccc4F)CC3)nc2)oc2ccccc12 [Example 4, N-(6-(4-(2-(2,6-difluorophenyl)acetyl)piperazin-1-yl)pyridin-3-yl)-3-methylbenzofuran-2-carboxamide]	7.34
Cc1c(C(=O)Nc2ccc(N3CCC(COc4cccc(C(=O)O)c4)CC3)nc2)oc2ccc(Oc3ccccc3)cc12 [Example 94, 3-((1-(5-(3-methyl-5-phenoxybenzofuran-2-carboxamido)pyridin-2-yl)piperidin-4-yl)methoxy)benzoic acid]	7.15
Cc1c(C(=O)Nc2ccc(N3CCN(C(=O)[C@H](O)c4ccccc4)CC3)nc2)oc2ccccc12 [Example 2, (R)—N-(6-(4-(2-hydroxy-2-phenylacetyl)piperazin-1-yl)pyridin-3-yl)-3-methylbenzofuran-2-carboxamide]	6.20
Cc1c(C(=O)Nc2ccc(N3CCC(OCc4cccc(C(=O)O)c4)CC3)nc2)oc2ccc(-c3ccc(F)cc3)cc12 [Example 37, 3-((1-(5-(5-(4-fluorophenyl)-3-methylbenzofuran-2-carboxamido)pyridin-2-yl)piperidin-4-yloxy)methyl)benzoic acid]	6.97
Cc1c(C(=O)Nc2ccc(-c3ccc(OC4CCC(C(=O)O)CC4)nc3)nc2)oc2ccc(-c3ccccc3)cc12 (stereo not shown) [Example 95, 4-(5-(3-methyl-5-phenylbenzofuran-2-carboxamido)-2,3′-bipyridin-6′-yloxy)cyclohexanecarboxylic acid]	8.22
COc1ccc(-c2ccc3oc(C(=O)Nc4ccc(N5CCC(OCc6cccc(C(=O)O)c6)CC5)nc4)c(C)c3c2)cc1 [Example 64, 3-((1-(5-(5-(4-methoxyphenyl)-3-methylbenzofuran-2-carboxamido)pyridin-2-yl)piperidin-4-yloxy)methyl)benzoic acid]	7.19
CCOC(=O)c1ccccc1NC(=O)N1CCN(c2ccc(NC(=O)c3oc4ccc(-c5ccccc5OC)cc4c3C)cn2)CC1 [Example 68, ethyl 2-(4-(5-(5-(2-methoxyphenyl)-3-methylbenzofuran-2-carboxamido)pyridin-2-yl)piperazine-1-carboxamido)benzoate]	5.61
CCOC(=O)c1ccccc1NC(=O)N1CCN(c2ccc(NC(=O)c3oc4ccc(-c5cccc(F)c5)cc4c3C)cn2)CC1 [Example 30, ethyl 2-(4-(5-(5-(3-fluorophenyl)-3-methylbenzofuran-2-carboxamido)pyridin-2-yl)piperazine-1-carboxamido)benzoate]	5.85
Cc1c(C(=O)Nc2ccc(N3CCC(OCc4cccc(C(=O)O)c4)CC3)nc2)oc2ccc(-c3cccc(F)c3)cc12 [Example 29, 3-((1-(5-(5-(3-fluorophenyl)-3-methylbenzofuran-2-carboxamido)pyridin-2-yl)piperidin-4-yloxy)methyl)benzoic acid]	6.87
Cc1c(C(=O)Nc2ccc(-c3ccc(OCC(C)(C)C(=O)O)nc3)nc2)oc2ccc(-c3ccccc3)cc12 [Example 59, 2,2-dimethyl-3-(5-(3-methyl-5-phenylbenzofuran-2-carboxamido)-2,3′-bipyridin-6′-yloxy)propanoic acid]	8.05
CCOC(=O)c1ccccc1NC(=O)N1CCN(c2ccc(NC(=O)c3oc4ccc(-c5ccc(F)cc5)cc4c3C)cn2)CC1 [Example 38, ethyl 2-(4-(5-(5-(4-fluorophenyl)-3-methylbenzofuran-2-carboxamido)pyridin-2-yl)piperazine-1-carboxamido)benzoate]	6.00
Cc1c(C(=O)Nc2ccc(N3CCN(C(=O)Nc4ccccc4F)CC3)nc2)oc2ccc(-c3ccccc3F)cc12 [Example 20, N-(2-fluorophenyl)-4-(5-(5-(2-fluorophenyl)-3-methylbenzofuran-2-carboxamido)pyridin-2-yl)piperazine-1-carboxamide]	6.94
CCOC(=O)c1ccccc1NC(=O)N1CCN(c2ccc(NC(=O)c3sc4ccc(-c5ccccc5)cc4c3C)cn2)CC1 [Example 50, ethyl 2-(4-(5-(3-methyl-5-phenylbenzo[b]thiophene-2-carboxamido)pyridin-2-yl)piperazine-1-carboxamido)benzoate]	5.63
COc1ccccc1-c1ccc2oc(C(=O)Nc3ccc(N4CCC(COc5cccc(C(=O)O)c5)CC4)nc3)c(C)c2c1 [Example 71]	6.77
COC(=O)c1cccc(COC2CCN(c3ccc(NC(=O)c4oc5ccc(-c6ccccc6OC)cc5c4C)cn3)CC2)c1 [Example 72, methyl 3-((1-(5-(5-(2-methoxyphenyl)-3-methylbenzofuran-2-carboxamido)pyridin-2-yl)piperidin-4-yloxy)methyl)benzoate]	4.88
Cc1c(C(=O)Nc2ccc(N3CCC(COc4cccc(C(=O)O)c4)CC3)nc2)oc2ccc(-c3ccccc3)cc12 [Example 18, 3-((1-(5-(3-methyl-5-phenylbenzofuran-2-carboxamido)pyridin-2-yl)piperidin-4-yl)methoxy)benzoic acid]	7.28

Next, values leading:

pIC50	SMILES
7.26	Cc1c(C(=O)Nc2ccc(N3CCC(COc4cccc(C(=O)O)c4)CC3)nc2)oc2ccc(-c3ccc(F)cc3)cc12 [Example 39, 3-((1-(5-(5-(4-fluorophenyl)-3-methylbenzofuran-2-carboxamido)pyridin-2-yl)piperidin-4-yl)methoxy)benzoic acid]
7.23	Cc1c(C(=O)Nc2ccc(N3CCN(C(=O)Nc4ccccc4C(=O)O)CC3)nc2)oc2ccc(-c3ccccc3F)cc12 [Example 24, 2-(4-(5-(5-(2-fluorophenyl)-3-methylbenzofuran-2-carboxamido)pyridin-2-yl)piperazine-1-carboxamido)benzoic acid]
6.25	CCOC(=O)c1ccccc1NC(=O)N1CCN(c2ccc(NC(=O)c3oc4ccc(-c5ccccc5F)cc4c3C)cn2)CC1 [Example 21, ethyl 2-(4-(5-(5-(2-fluorophenyl)-3-methylbenzofuran-2-carboxamido)pyridin-2-yl)piperazine-1-carboxamido)benzoate]
7.08	Cc1c(C(=O)Nc2ccc(N3CCC(COc4cccc(C(=O)O)c4)CC3)nc2)oc2ccccc12 [Example 91, 3-((1-(5-(3-methylbenzofuran-2-carboxamido)pyridin-2-yl)piperidin-4-yl)methoxy)benzoic acid]
6.69	COc1ccccc1-c1ccc2oc(C(=O)Nc3ccc(N4CCN(C(=O)Nc5ccccc5F)CC4)nc3)c(C)c2c1 [Example 69, N-(2-fluorophenyl)4-(5-(5-(2-methoxyphenyl)-3-methylbenzofuran-2-carboxamido)pyridin-2-yl)piperazine-1-carboxamide]
6.44	CCOC(=O)c1ccccc1NC(=O)N1CCN(c2ccc(NC(=O)c3oc4ccc(-c5ccccc5)cc4c3C)cn2)CC1 [Example 14, ethyl 2-(4-(5-(3-methyl-5-phenylbenzofuran-2-carboxamido)pyridin-2-yl)piperazine-1-carboxamido)benzoate]
7.08	Cc1c(C(=O)Nc2ccc(N3CCN(C(=O)Nc4ccccc4C(=O)O)CC3)nc2)oc2ccc(-c3cccc(F)c3)cc12 [Example 31, 2-(4-(5-(5-(3-fluorophenyl)-3-methylbenzofuran-2-carboxamido)pyridin-2-yl)piperazine-1-carboxamido)benzoic acid]
7.03	Cc1c(C(=O)Nc2ccc(N3CCC(OCc4cccc(C(=O)O)c4)CC3)nc2)oc2ccc(-c3ccccc3F)cc12 [Example 25, 3-((1-(5-(5-(2-fluorophenyl)-3-methylbenzofuran-2-carboxamido)pyridin-2-yl)piperidin-4-yloxy)methyl)benzoic acid]
6.81	Cc1ccc(C(=O)O)cc1COC1CCN(c2ccc(NC(=O)c3oc4ccc(-c5ccccc5)cc4c3C)cn2)CC1 [Example 78, 4-methyl-3-((1-(5-(3-methyl-5-phenylbenzofuran-2-carboxamido)pyridin-2-yl)piperidin-4-yloxy)methyl)benzoic acid]
